Assay results as given in the supplement of paper PMC10307832.

Columns and labels:
Assay in all cases: relative viability (nuclei count vs DMSO), 5 days (fraction); higher = more cells survive
Bexarotene + Bortezomib = compound: C=C(c1ccc(C(=O)O)cc1)c1cc2c(cc1C)C(C)(C)CCC2(C)C [Bexarotene] + CC(C)C[C@H](NC(=O)[C@H](Cc1ccccc1)NC(=O)c1cnccn1)B(O)O [Bortezomib] (partner 0.002 µM)
Summary of the method: (§1)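 Lung cancer cell lines were pin-tool dosed in 1536-well plates on the day after seeding, with either a lone drug or a fixed anchor-drug dose plus five library-drug doses (not always all listed) in √10 steps. Nuclei were counted on 4× images after 5 days. Relative viability is the ratio of treated-well to vehicle-well nuclei counts, with each value a median of duplicate plates.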

Bexarotene + Pemetrexed = compound: C=C(c1ccc(C(=O)O)cc1)c1cc2c(cc1C)C(C)(C)CCC2(C)C [Bexarotene] + Nc1nc2[nH]cc(CCc3ccc(C(=O)N[C@@H](CCC(=O)O)C(=O)O)cc3)c2c(=O)[nH]1 [Pemetrexed] (partner 0.2 µM)
Summary of the method: as §1

Bexarotene + Olaparib = compound: C=C(c1ccc(C(=O)O)cc1)c1cc2c(cc1C)C(C)(C)CCC2(C)C [Bexarotene] + O=C(c1cc(Cc2n[nH]c(=O)c3ccccc23)ccc1F)N1CCN(C(=O)C2CC2)CC1 [Olaparib] (partner 8 µM)
Summary of the method: as §1

Bexarotene + Alpelisib = compound: C=C(c1ccc(C(=O)O)cc1)c1cc2c(cc1C)C(C)(C)CCC2(C)C [Bexarotene] + Cc1nc(NC(=O)N2CCC[C@H]2C(N)=O)sc1-c1ccnc(C(C)(C)C(F)(F)F)c1 [Alpelisib] (partner 2 µM)
Summary of the method: as §1

| Cell Line | relative viability (Bexarotene + Bortezomib; first compound 0.08 µM) | relative viability (Bexarotene + Bortezomib; first compound 0.253 µM) | relative viability (Bexarotene + Bortezomib; first compound 0.8 µM) | relative viability (Bexarotene + Bortezomib; first compound 2.53 µM) | relative viability (Bexarotene + Bortezomib; first compound 8 µM) | relative viability (Bexarotene + Pemetrexed; first compound 0.08 µM) | relative viability (Bexarotene + Pemetrexed; first compound 0.253 µM) | relative viability (Bexarotene + Pemetrexed; first compound 0.8 µM) | relative viability (Bexarotene + Pemetrexed; first compound 2.53 µM) | relative viability (Bexarotene + Pemetrexed; first compound 8 µM) | relative viability (Bexarotene + Olaparib; first compound 0.08 µM) | relative viability (Bexarotene + Olaparib; first compound 0.253 µM) | relative viability (Bexarotene + Olaparib; first compound 0.8 µM) | relative viability (Bexarotene + Olaparib; first compound 2.53 µM) | relative viability (Bexarotene + Olaparib; first compound 8 µM) | relative viability (Bexarotene + Alpelisib; first compound 0.08 µM) | relative viability (Bexarotene + Alpelisib; first compound 0.253 µM) | relative viability (Bexarotene + Alpelisib; first compound 0.8 µM) | relative viability (Bexarotene + Alpelisib; first compound 2.53 µM) | relative viability (Bexarotene + Alpelisib; first compound 8 µM) |
| --- | --- | --- | --- | --- | --- | --- | --- | --- | --- | --- | --- | --- | --- | --- | --- | --- | --- | --- | --- | --- |
| NCI-H2023 | 1.08 | 1.01 | 1.07 | 0.846 | 0.786 | 0.283 | 0.251 | 0.202 | 0.202 | 0.196 | 0.461 | 0.542 | 0.406 | 0.428 | 0.288 | 0.622 | 0.618 | 0.615 | 0.548 | 0.57 |
| NCI-H2085 | 1.04 | 0.918 | 0.929 | 0.946 | 0.939 | 0.832 | 0.808 | 0.753 | 0.751 | 0.74 | 0.691 | 0.709 | 0.693 | 0.676 | 0.694 | 0.892 | 0.924 | 0.873 | 0.855 | 0.824 |
| NCI-H2087 | 0.877 | 0.972 | 0.979 | 0.753 | 0.725 | 0.681 | 0.743 | 0.696 | 0.652 | 0.549 | 0.689 | 0.72 | 0.582 | 0.481 | 0.58 | 1.27 | 1.11 | 1.08 | 0.997 | 1.05 |
| NCI-H2126 | 1.13 | 1.17 | 1.08 | 1.12 | 1.11 | 0.822 | 0.679 | 0.621 | 0.742 | 0.636 | 0.927 | 0.912 | 0.855 | 0.837 | 0.816 | 0.8 | 0.81 | 0.698 | 0.826 | 0.847 |
| NCI-H2228 | 1.08 | 1.3 | 1.05 | 1.11 | 0.841 | 0.36 | 0.358 | 0.365 | 0.212 | 0.376 | 0.825 | 0.799 | 0.631 | 0.591 | 0.492 | 0.669 | 0.722 | 0.609 | 0.629 | 0.499 |
| NCI-H2347 | 1.2 | 0.904 | 0.818 | 0.664 | 0.835 | 0.484 | 0.424 | 0.399 | 0.445 | 0.462 | 0.583 | 0.614 | 0.552 | 0.42 | 0.647 | 1.05 | 1.03 | 0.748 | 1.01 | 1.11 |
| NCI-H2405 | 1.07 | 0.945 | 0.836 | 0.896 | 0.92 | 1.25 | 1.09 | 0.939 | 0.977 | 1.07 | 0.93 | 0.849 | 0.7 | 0.852 | 0.83 | 0.935 | 0.915 | 0.52 | 0.806 | 0.864 |
| NCI-H3122 | 1.09 | 1.05 | 1.09 | 1.15 | 1.13 | 0.219 | 0.202 | 0.194 | 0.217 | 0.213 | 0.667 | 0.751 | 0.617 | 0.645 | 0.618 | 0.782 | 0.8 | 0.784 | 0.786 | 0.847 |
| PC-3 [JPC-3] | 0.9 | 0.843 | 0.68 | 0.858 | 0.771 | 1.07 | 1.05 | 1.05 | 0.541 | 1 | 1.01 | 1.1 | 1.02 | 1.06 | 0.938 | 1.06 | 1.08 | 0.815 | 0.984 | 0.932 |
| PC-14 | 0.926 | 0.885 | 0.856 | 0.825 | 0.719 | 0.127 | 0.144 | 0.145 | 0.145 | 0.16 | 0.268 | 0.349 | 0.243 | 0.213 | 0.214 | 1.02 | 1.06 | 0.9 | 0.957 | 0.921 |
| RERF-LC-KJ | 1.17 | 1.12 | 1.03 | 1.06 | 1.17 | 0.506 | 0.513 | 0.501 | 0.506 | 0.47 | 0.991 | 0.885 | 0.812 | 0.888 | 0.865 | 0.712 | 0.784 | 0.723 | 0.715 | 0.77 |
| SK-LU-1 | 1.23 | 1.6 | 0.88 | 1.32 | 1.05 | 1.03 | 1.03 | – | 0.944 | 0.923 | 0.557 | 0.43 | – | 0.417 | 0.399 | 1.11 | 1.06 | – | 0.97 | 0.988 |
| SW 1573 | 0.896 | 0.923 | 0.955 | 0.803 | 0.763 | 0.911 | 0.814 | 0.897 | 0.751 | 0.847 | 0.537 | 0.461 | 0.499 | 0.445 | 0.41 | 0.706 | 0.454 | 0.51 | 0.454 | 0.422 |
| UMC-11 | 0.877 | 0.796 | 0.8 | 1.03 | 0.637 | 0.77 | 0.764 | 0.786 | 0.77 | 0.803 | 0.387 | 0.425 | 0.525 | 0.353 | 0.37 | 0.971 | 1.02 | 0.954 | 1.04 | 0.955 |
